melting point: 64 °C
Structure (SMILES): CC(=O)N(Cc1ccccc1)NC(=O)[C@@H]1C[C@@H](S)CN1S(=O)(=O)c1ccc2ccccc2c1

— patent publication US6444829B1, “Pyrrolidine compounds” (Hoffmann-La Roche Inc., priority 2000, dated 2002)
